Data from patent US8420675B2, “Aminotetrahydroindazoloacetic acids” (Hoffmann-La Roche Inc., priority 2008, dated 2013).

Biological target: T1, human CRTH2 (Homo sapiens, UniProt Q9Y5Y4)
T1 construct: expressed in transfected cells
T1 sequence (Q9Y5Y4 1-395): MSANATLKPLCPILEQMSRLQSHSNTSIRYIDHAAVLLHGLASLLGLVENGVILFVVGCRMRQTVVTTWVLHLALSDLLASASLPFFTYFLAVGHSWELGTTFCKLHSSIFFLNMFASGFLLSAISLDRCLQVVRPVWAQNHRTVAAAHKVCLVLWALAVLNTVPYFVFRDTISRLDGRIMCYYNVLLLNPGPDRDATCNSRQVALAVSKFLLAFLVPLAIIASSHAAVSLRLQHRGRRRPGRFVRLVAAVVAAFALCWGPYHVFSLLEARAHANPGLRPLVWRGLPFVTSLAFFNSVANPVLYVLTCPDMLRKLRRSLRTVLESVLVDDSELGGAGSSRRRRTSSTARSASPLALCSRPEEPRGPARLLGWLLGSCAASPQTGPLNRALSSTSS
Experiment: Human CRTH2 Receptor Binding Assay (whole cell, [3H]ramatroban competition)
Conditions: CHO-K1 cells expressing human CRTH2 and G-alpha16; 20 nM [3H]ramatroban; 1 hour, room temperature
Description: A whole cell receptor binding assay using [^3H]ramatroban as the competing radioactive ligand was employed to evaluate the compound binding activity to human CRTH2. The radioactive ligand [^3H]ramatroban was synthesized according to Sugimoto et. al. (Eur. J. Pharmacol. 524, 30-37, 2005) to a specific activity of 42 Ci/mmol.
A cell line stably expressing human CRTH2 was established by transfecting CHO-K1 cells with two mammalian expression vectors that harbored human CRTH2 and G-alpha16 cDNAs, respectively, using FuGene® 6 transfection reagent (from Roche). Stable clones expressing CRTH2 were selected by staining each clone with BM16 (BD Pharmingen™ from BD Biosciences, a division of Becton, Dickinson and Company), which is a rat monoclonal antibody to human CRTH2. The cells were maintained as monolayer cultures in Ham's F-12 medium containing 10% fetal bovine serum, 100 units/mL penicillin, 100 μg/mL streptomycin, 2 mM glutamine, 0.5 mg/mL G418 (geneticin) for CRTH2, and 0.2 mg/mL hygromycin-B (for G-alpha 16). For whole cell receptor binding assay, the monolayer cells were rinsed once with PBS (phosphate buffered saline), dissociated using ethylenediaminetetraacetate (Versene™ EDTA Lonza Inc.), and suspended in PBS containing 10 mM MgCl2 and 0.06% BSA (bovine serum albumin) at 1.5×10^6 cells/mL.
The binding reactions (0.2 mL) were performed in 96-well plates at room temperature in PBS containing 1.5×10^5 cells, 10 mM MgCl2, 0.06% BSA, 20 nM [^3H]ramatroban, and test compound at various concentrations. After 1 hour of binding reactions, the cells were harvested on GF™/B filter microplates (microtiter plates with embedded glass fiber from PerkinElmer, Inc.) and washed 5 times with PBS using a Filtermate™ Harvester (a cell harvester that harvests and washes cells from microplates from PerkinElmer, Inc.). The radioactivities bound to the cells were determined using a microplate scintillation counter (TopCount® NXT, from PerkinElmer, Inc.) after adding 50 μL of Microscint™ 20 scintillation fluid (from PerkinElmer, Inc.) to each well of the filter plates. The radioactivity from non-specific binding was determined by replacing compound with 10 μM of 15(R)-15-methyl PGD2 (from Cayman Chemical Company) in the reaction mixtures. The radioactivity bound to the cells in the absence of compound (total binding) was determined by replacing compound with 0.25% of DMSO (dimethyl sulfoxide) in the reaction mixture. Specific binding data were obtained by subtracting the radioactivity of non-specific binding from each binding data.
The IC50 value is defined as the concentration of the tested compound that is required for 50% inhibition of total specific binding. In order to calculate the IC50 value, the percent inhibition data were determined for 7 concentrations for each compound. The percent inhibition for a compound at each concentration was calculated according to the following formula, [1-(specific binding in the presence of compound)/(total specific binding)]x100. The IC50 value was then obtained by fitting the percent inhibition data to a sigmoidal dose-response (4 parameter logistic) model in the XLfit® software Excel add-in program [from ID Business Solutions Ltd., model 205, where F(x)=(A+(B−A)/(1+((C/x)^D)))].

| IC50 [nM] | Structure (SMILES) |
| --- | --- |
| 21.7 | CN([C@@H]1CCCc2c1cnn2CC(=O)O)S(=O)(=O)c1ccc(Oc2ccc(Cl)cc2Cl)c(Cl)c1 [Example 9-6a, ((R)-4-{[3-Chloro-4-(2,4-dichloro-phenoxy)-benzenesulfonyl]-methyl-amino}-4,5,6,7-tetrahydro-indazol-1-yl)-acetic acid] |
| 12.6 | CN([C@@H]1CCCc2c1cnn2CC(=O)O)S(=O)(=O)c1ccc(Oc2ccc(C(C)(C)C)cc2)c(Cl)c1 [Example 9-7a, ((R)-4-{[4-(4-tert-Butyl-phenoxy)-3-chloro-benzenesulfonyl]-methyl-amino}-4,5,6,7-tetrahydro-indazol-1-yl)-acetic acid] |
| 91.4 | CN([C@@H]1CCCc2c1cnn2CC(=O)O)S(=O)(=O)c1ccc(Oc2ccc(Cl)cc2Cl)cc1Cl [Example 9-8a, ((R)-4-{[2-Chloro-4-(2,4-dichloro-phenoxy)-benzenesulfonyl]-methyl-amino}-4,5,6,7-tetrahydro-indazol-1-yl)-acetic acid] |
| 70 | CN([C@@H]1CCCc2c1cnn2CC(=O)O)S(=O)(=O)c1ccc(Oc2ccc(F)cc2Cl)cc1Cl [Example 9-9a, ((R)-4-{[2-Chloro-4-(2-chloro-4-fluoro-phenoxy)-benzenesulfonyl]-methyl-amino}-4,5,6,7-tetrahydro-indazol-1-yl)-acetic acid] |
| 97.2 | CN([C@@H]1CCCc2c1cnn2CC(=O)O)S(=O)(=O)c1ccc(Oc2ccccc2Cl)cc1Cl [Example 9-10a, ((R)-4-{[2-Chloro-4-(2-chloro-phenoxy)-benzenesulfonyl]-methyl-amino}-4,5,6,7-tetrahydro-indazol-1-yl)-acetic acid] |
| 7.2 | CN([C@@H]1CCCc2c1cnn2CC(=O)O)S(=O)(=O)c1ccc(Oc2ccc(Cl)cc2F)c(Cl)c1 [Example 9-11a, ((R)-4-{[3-Chloro-4-(4-chloro-2-fluoro-phenoxy)-benzenesulfonyl]-methyl-amino}-4,5,6,7-tetrahydro-indazol-1-yl)-acetic acid] |
| 7.4 | CN([C@@H]1CCCc2c1cnn2CC(=O)O)S(=O)(=O)c1ccc(Oc2ccc(Cl)cc2)c(F)c1 [Example 9-12a, ((R)-4-{[4-(4-Chloro-phenoxy)-3-fluoro-benzenesulfonyl]-methyl-amino}-4,5,6,7-tetrahydro-indazol-1-yl)-acetic acid] |
| 9.5 | CN([C@@H]1CCCc2c1cnn2CC(=O)O)S(=O)(=O)c1ccc(Oc2ccccc2)c(Cl)c1 [Example 9-13a, {(R)-4-[(3-Chloro-4-phenoxy-benzenesulfonyl)-methyl-amino]-4,5,6,7-tetrahydro-indazol-1-yl}-acetic acid] |
| 4.4 | CN([C@@H]1CCCc2c1cnn2CC(=O)O)S(=O)(=O)c1ccc(Oc2ccc(F)cc2)c(Cl)c1 [Example 9-14a, ((R)-4-{[3-Chloro-4-(4-fluoro-phenoxy)-benzenesulfonyl]-methyl-amino}-4,5,6,7-tetrahydro-indazol-1-yl)-acetic acid] |
| 10.3 | Cc1ccc(Oc2ccc(S(=O)(=O)N(C)[C@@H]3CCCc4c3cnn4CC(=O)O)cc2Cl)cc1 [Example 9-15a, {(R)-4-[(3-Chloro-4-p-tolyloxy-benzenesulfonyl)-methyl-amino]-4,5,6,7-tetrahydro-indazol-1-yl}-acetic acid] |
| 8 | CN([C@@H]1CCCc2c1cnn2CC(=O)O)S(=O)(=O)c1ccc(Oc2ccc(F)cc2Cl)c(Cl)c1 [Example 9-16a, ((R)-4-{[3-Chloro-4-(2-chloro-4-fluoro-phenoxy)-benzenesulfonyl]-methyl-amino}-4,5,6,7-tetrahydro-indazol-1-yl)-acetic acid] |
| 12.9 | COc1cc(F)ccc1Oc1ccc(S(=O)(=O)N(C)[C@@H]2CCCc3c2cnn3CC(=O)O)cc1Cl [Example 9-17a, ((R)-4-{[3-Chloro-4-(4-fluoro-2-methoxy-phenoxy)-benzenesulfonyl]-methyl-amino}-4,5,6,7-tetrahydro-indazol-1-yl)-acetic acid] |

More lines, now with the values behind:

| Structure (SMILES) | IC50 [nM] |
| --- | --- |
| CC(C)c1ccc(Oc2ncc(S(=O)(=O)N(C)[C@@H]3CCCc4c3cnn4CC(=O)O)cc2Br)cc1 [Example 6-11a, ((R)-4-{[5-Bromo-6-(4-isopropyl-phenoxy)-pyridine-3-sulfonyl]-methyl-amino}-4,5,6,7-tetrahydro-indazol-1-yl)-acetic acid] | 8.8 |
| CN([C@@H]1CCCc2c1cnn2CC(=O)O)S(=O)(=O)c1cnc(Oc2ccc(F)cc2)c(Br)c1 [Example 6-12a, ((R)-4-{[5-Bromo-6-(4-fluoro-phenoxy)-pyridine-3-sulfonyl]-methyl-amino}-4,5,6,7-tetrahydro-indazol-1-yl)-acetic acid] | 8.4 |
| COc1cc(F)ccc1Oc1ncc(S(=O)(=O)N(C)[C@@H]2CCCc3c2cnn3CC(=O)O)cc1Br [Example 6-13a, ((R)-4-{[5-Bromo-6-(4-fluoro-2-methoxy-phenoxy)-pyridine-3-sulfonyl]-methyl-amino}-4,5,6,7-tetrahydro-indazol-1-yl)-acetic acid] | 6.5 |
| CN([C@@H]1CCCc2c1cnn2CC(=O)O)S(=O)(=O)c1cnc(Oc2ccc(C#N)cc2)c(Br)c1 [Example 6-14a, ((R)-4-{[5-Bromo-6-(4-cyano-phenoxy)-pyridine-3-sulfonyl]-methyl-amino}-4,5,6,7-tetrahydro-indazol-1-yl)-acetic acid] | 8.2 |
| CC(C)c1cc(S(=O)(=O)N(C)[C@@H]2CCCc3c2cnn3CC(=O)O)cnc1Oc1ccc(Cl)cc1 [Example 7-1a, ((R)-4-{[6-(4-Chloro-phenoxy)-5-isopropyl-pyridine-3-sulfonyl]-methyl-amino}-4,5,6,7-tetrahydro-indazol-1-yl)-acetic acid] | 12.1 |
| CN([C@@H]1CCCc2c1cnn2CC(=O)O)S(=O)(=O)c1cnc(Oc2ccc(Cl)cc2)c(C2(C)CC2)c1 [Example 8-1a, ((R)-4-{[6-(4-Chloro-phenoxy)-5-(1-methyl-cyclopropyl)-pyridine-3-sulfonyl]-methyl-amino}-4,5,6,7-tetrahydro-indazol-1-yl)-acetic acid] | 14.5 |
| CN([C@@H]1CCCc2c1cnn2CC(=O)O)S(=O)(=O)c1ccc(Oc2ccccc2Cl)c(Cl)c1 [Example 9-1a, ((R)-4-{[3-Chloro-4-(2-chloro-phenoxy)-benzenesulfonyl]-methyl-amino}-4,5,6,7-tetrahydro-indazol-1-yl)-acetic acid] | 5.5 |
| CN([C@@H]1CCCc2c1cnn2CC(=O)O)S(=O)(=O)c1ccc(Oc2cccc(Cl)c2)c(Cl)c1 [Example 9-2a, ((R)-4-{[3-Chloro-4-(3-chloro-phenoxy)-benzenesulfonyl]-methyl-amino}-4,5,6,7-tetrahydro-indazol-1-yl)-acetic acid] | 12.2 |
| CN([C@@H]1CCCc2c1cnn2CC(=O)O)S(=O)(=O)c1ccc(Oc2ccc(Cl)cc2)c(Cl)c1 [Example 9-3a, ((R)-4-{[3-Chloro-4-(4-chloro-phenoxy)-benzenesulfonyl]-methyl-amino}-4,5,6,7-tetrahydro-indazol-1-yl)-acetic acid] | 11.1 |
| CN([C@@H]1CCCc2c1cnn2CC(=O)O)S(=O)(=O)c1ccc(Oc2ccc(Cl)cc2)cc1Cl [Example 9-4a, ((R)-4-{[2-Chloro-4-(4-chloro-phenoxy)-benzenesulfonyl]-methyl-amino}-4,5,6,7-tetrahydro-indazol-1-yl)-acetic acid] | 37.1 |
| CN([C@@H]1CCCc2c1cnn2CC(=O)O)S(=O)(=O)c1ccc(Oc2ccc(Cl)cc2)c(C(F)(F)F)c1 [Example 9-5a, ((R)-4-{[4-(4-Chloro-phenoxy)-3-trifluoromethyl-benzenesulfonyl]-methyl-amino}-4,5,6,7-tetrahydro-indazol-1-yl)-acetic acid] | 8.2 |
